Drawing on ChEMBL document CHEMBL1149774, “Synthesis of N-(5,7-diamino-3-phenyl-quinoxalin-2-yl)-3,4,5-substituted anilines and N-[4[(5,7-diamino-3-phenylquinoxalin-2-yl)amino]benzoyl]-l-glutamic acid diethyl ester: evaluation of in vitro anti-cancer and anti-folate activities” (Eur J Med Chem, 2008), this text covers Ki and Activity for 4 molecules.

Structures are written as SMILES. Calls of active or inactive are those of the source. The rule behind the calls is not given here.

The target of assay [1] is T1, Thymidylate synthase (Lactobacillus casei, UniProt P00469).
T1 sequence (P00469 whole entry): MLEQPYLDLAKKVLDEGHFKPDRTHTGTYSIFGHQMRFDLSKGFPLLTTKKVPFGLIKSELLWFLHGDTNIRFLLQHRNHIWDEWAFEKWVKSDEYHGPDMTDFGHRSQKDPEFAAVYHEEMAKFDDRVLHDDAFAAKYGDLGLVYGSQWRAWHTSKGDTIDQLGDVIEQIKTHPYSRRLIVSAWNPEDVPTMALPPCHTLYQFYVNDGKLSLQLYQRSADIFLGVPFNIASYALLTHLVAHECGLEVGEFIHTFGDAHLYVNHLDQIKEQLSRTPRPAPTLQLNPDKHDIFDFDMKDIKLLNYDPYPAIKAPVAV
Description: Inhibition of Lactobacillus casei thymidylate synthase

For assay [2], the target named is Thymidylate synthase (Escherichia coli) (UniProt C3SWJ7). Nature of the assay: Inhibition of Escherichia coli thymidylate synthase at 10 uM.
In assay [3] the target is Thymidylate synthase (Homo sapiens, UniProt P04818). Nature of the assay: Inhibition of human thymidylate synthase at 10 uM.
In assay [4] the target is Thymidylate synthase (Escherichia coli, UniProt C3SWJ7).
Thymidylate synthase (Escherichia coli, UniProt C3SWJ7), sequence (C3SWJ7 whole entry): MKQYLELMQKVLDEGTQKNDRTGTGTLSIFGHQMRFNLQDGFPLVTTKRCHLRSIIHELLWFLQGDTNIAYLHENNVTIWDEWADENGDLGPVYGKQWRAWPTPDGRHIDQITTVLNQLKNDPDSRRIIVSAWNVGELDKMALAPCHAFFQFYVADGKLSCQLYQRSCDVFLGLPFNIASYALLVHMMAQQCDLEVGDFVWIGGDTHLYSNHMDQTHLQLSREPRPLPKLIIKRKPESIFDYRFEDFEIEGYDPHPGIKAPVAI

Thymidylate synthase (Escherichia coli), sequence (C3SWJ7 1-264): as the sequence (C3SWJ7 whole entry) above
Thymidylate synthase (Homo sapiens, UniProt P04818), sequence (P04818 2-313 limits assumed): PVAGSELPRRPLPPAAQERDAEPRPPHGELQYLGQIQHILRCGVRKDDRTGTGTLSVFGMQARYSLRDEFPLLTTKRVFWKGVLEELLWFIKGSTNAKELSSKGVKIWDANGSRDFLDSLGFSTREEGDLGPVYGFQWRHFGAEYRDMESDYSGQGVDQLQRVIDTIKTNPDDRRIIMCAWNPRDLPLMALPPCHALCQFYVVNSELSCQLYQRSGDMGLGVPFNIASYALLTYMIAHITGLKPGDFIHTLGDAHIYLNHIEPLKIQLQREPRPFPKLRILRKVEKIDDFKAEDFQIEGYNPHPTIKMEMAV

What is called Ki is a measure of affinity in units of concentration, obtained from inhibition or displacement. A low value points to a stronger hold on the target. `COc1ccc(Nc2nc3cc(N)cc(N)c3nc2-c2ccccc2)cc1OC` came in with an inhibition constant Ki at Thymidylate synthase [1] of 6 µM. The outcome (in assay [2]; at Thymidylate synthase [3]) was inactive.
Regarding `Nc1cc(N)c2nc(-c3ccccc3)c(Nc3ccc(Cl)c(Cl)c3)nc2c1`, the inhibitory constant (Ki) turned out to be 3 µM at Thymidylate synthase [4] and 1 µM at Thymidylate synthase [1].
For the molecule `Nc1cc(N)c2nc(-c3ccccc3)c(Nc3ccc(F)cc3)nc2c1`, the inhibition constant Ki at Thymidylate synthase [4] is 70 µM; at Thymidylate synthase [1], 3 µM. Further, the outcome on Thymidylate synthase [3] was inactive.
Molecule `CCOC(=O)CCC(NC(=O)c1ccc(Nc2nc3cc(N)cc(N)c3nc2-c2ccccc2)cc1)C(=O)OCC` (stereo not given) gave a Ki at Thymidylate synthase [1] of 27 µM. Also, in assay [2], the result was inactive.
